Source: patent US20220401391A1, “METHODS AND COMPOSITIONS FOR TREATING PAIN” (Apkarian Technologies LLC, priority 2019, published 2022)
Entries after “also recorded” stand apart in the source; their conditions may differ.

Assays:
[1] = human, in vivo
Description: The study consisted of eight visits spread over ˜28 weeks, which included an initial screening/monitoring period (˜2 weeks), followed by a treatment period (12 weeks) and a post-treatment observational period (12 weeks). Safety and adverse events were assessed at each clinical visit, including vital signs. At each visit, researchers reminded participants to take their medication according to instructions. Safety was also assessed through blood screenings at baseline, while blood pressure, pulse and temperature were assessed at all study visits.
Adverse events (AEs) that occurred during treatment and those that occurred after treatment were differentiated. However, to account for potential late onset AEs or those related to withdrawal of medication, AEs occurring during a certain window after treatment were considered to be “during treatment”.
Analyses were done using MATLAB 2016a, JMP Pro version 13.2 (SAS Institute, Cary, N.C.) and SPSS version 25. Safety analyses included all participants who received at least one dose of the study drug.

[2] = tested on: subacute back pain (SBP) participants; assay: Double-blind randomized trial of LDP+NPX vs PLC+NPX in subacute back pain; phone NRS pain ratings; assay type: in vivo, human; details: for One-week average pain ratings, pain intensity (0-10), Mean ± SEM: phone NRS 0-10 scale
From the text: The main outcome measure was a Numerical Rating Scale (NRS),^19 where “0” corresponds to no pain and “10” indicates worst possible pain. On this scale, participants provided ratings of their current pain up to three times a day during study participation (6 months), via a smartphone app (phone NRS).
Treatment-related percentage residual pain was computed relative to the average phone-NRS score from the week preceding start of treatment, for every subject and every day, and then averaged across subjects for each treatment type (FIG. 2A). Over the treatment period, a rapid decrease in back pain intensity was observed that, in the NoTx group, stabilizes (with large fluctuations) at around 80% residual pain, while in the LDP+NPX and PLC+NPX groups residual pain continues to decrease for the duration of treatment, reaching a residual pain of about 50%. […] Remarkably in all three groups, the observed pain relief persisted after cessation of treatment, over the next 12 weeks.
This 24-week double-blind parallel randomized controlled trial was conducted at Northwestern University (Chicago, USA). Protocol and informed consent form were approved by Northwestern University IRB as well as NIDCR/NIH. All enrolled participants provided written informed consent. Safety and trial oversight were monitored by an independent data safety monitoring board and a clinical research organization, with NIDCR/NIH oversight. The trial was registered on ClinicalTrials.gov, under registry NCT01951105.
• Eligible subjects first underwent a brain imaging session and, using predefined brain-derived parameters, were stratified into high and low-risk subgroups for transitioning to CBP. Those in the low-risk category, who had 60% or higher probability of recovering naturally, entered the NoTx arm; the rest, who had less than 60% probability of recovering naturally, were randomized between a placebo-control arm, and a pharmacological treatment arm. A flexible dose escalation procedure was used and both researchers and participants were blinded to treatment type. Study medications were tapered off at week 12, and participants continued to be evaluated for another 12 weeks. At final visit, participants underwent a second brain scan.
The design was setup to evaluate safety, efficacy and gender dependence of the combination of carbidopa/levodopa (12.5 mg/50 mg-25 mg/100 mg-50 mg/200 mg, dose escalation based on response) plus naproxen 250 mg (LDP+NPX) administered three times a day, compared to placebo plus naproxen 250 mg (PLC+NPX) administered three times a day.
Treatment with carbidopa/levodopa was titrated up to 12.5 mg/50 mg three times/day over one week and then continued at that level for 4 weeks. If by the end of the initial 4-week period the participant “responded” [had >20% decrease in pain intensity from the average of all phone NRS ratings collected at baseline (between visit 1 and visit 3) to the average of all phone NRS ratings during those 5 weeks], the participant was maintained on that dose for the duration of the treatment period (12 weeks total). If there was no response, the carbidopa/levodopa dose was increased to 25 mg/100 mg three times/day for the following 4 weeks, at which time the pain status was re-evaluated (based on the average of all phone NRS rating during those four weeks, against baseline average). Again, if a response occurred, that dose was maintained in a blinded manner for the following 4 weeks of treatment; if not, further dose-titration carbidopa/levodopa occurred to 50 mg/200 mg three times/day for the final 4 weeks. When a participant experienced an adverse event at higher doses, the participant was given the next lower dose that s/he was able to tolerate and then maintained on that dose for the remainder of the 12-week dosing period. Naproxen dose (250 mg three times/day) remained constant for all participants throughout the study, except it was not given during the tapering down at the end of the study. […]

## levodopa/carbidopa [LDP]
[1]
  Safety / tolerability in words: No adverse effects specifically linked to LDP use were observed

## placebo+naproxen [PLC+NPX]
[2]; 3 and 6 months, by gender
  Response rates across response criteria (80%-20% residual pain), in words: less effective yielding similar response rates in males and females; also recorded: less effective and similar among males and females
[2]; 3 months (end of treatment)
  One-week average pain ratings, pain intensity (0-10), Mean ± SEM: 2.4 ± 0.4
[2]; 6 months (3 months after end of treatment)
  One-week average pain ratings, pain intensity (0-10), Mean ± SEM: 2.2 ± 0.4
[2]; BL (baseline)
  One-week average pain ratings, pain intensity (0-10), Mean ± SEM: 5.1 ± 0.3
[2]; females vs males, residual pain at six months
  Efficacy by gender (residual pain, in words): more effective than LDP+NPX in males
[2]; males
  Males showing at least 80% improvement: 38%
[2]; relative to average phone-NRS of week preceding treatment, 12-week treatment
  Residual pain reached over duration of treatment: about 50%
